Publication PMC8279492, “Quinolinonyl Non-Diketo Acid Derivatives as Inhibitors of HIV-1 Ribonuclease H and Polymerase Functions of Reverse Transcriptase” (Journal of Medicinal Chemistry, 2021)
Where two headings read alike, the source gives them in different places.

Tests used:
[1] = target: T1, HIV-1 RT-associated RNase H activity (Human immunodeficiency virus type 1 group M subtype B, UniProt P03366); assay: biochemical; format: biochemical
T1 construct: His-tagged p66/p51 HIV-1 RT group M subtype B; His; made in house; host or cells: Escherichia coli M15
Description: (11) and β-thujaplicinol (BTP) used as positive controls.
His-tagged p66/p51 HIV-1 RT group M subtype B coded in a p6HRT-prot plasmid was expressed in the Escherichia coli strain M15.[65] Heterodimeric RTs were expressed essentially and purified as described.[66]
The HIV-1 RT-associated RNase H activity was measured as described.[68] Briefly, the reaction was carried out in a black 96-well plate in a total volume of 100 μL. […] Experiments were performed in duplicate and replicated at least two times. Data were analyzed as described.[36]

[2] = system: HIV-1 replication; assay: HIV-1 replication in HeLa-CD4-LTR-β-gal reporter cells; format: cell-based; conditions: read-out: antiviral activity EC50
Description: (§1) HIV-1 replication was monitored using HeLa-CD4-LTR-β-gal reporter cells as previously described.[69] Briefly, β-galactosidase activity was monitored 24 h post infection using a replication-competent HIV produced in-house (H9-laï coculture) and a serial dilution of molecules or an equivalent volume of DMSO. In parallel, compounds’ toxicity was determined at 24 h in the same cell line using CellTiter 96 AQueous One Solution Cell Proliferation Assay (Promega, France).

[3] = Compounds' toxicity, CellTiter 96 AQueous One Solution Cell Proliferation Assay; format: cell-based; conditions: human, HeLa-CD4-LTR-β-gal cells
Description: as §1

[4] = target: HIV-1 IN (Human immunodeficiency virus type 1 group M subtype B, UniProt P12497); assay: biochemical
Description: His-tagged NL4-3 IN was expressed from a pET15b plasmid in the E. coli BL21 pLys strain. Recombinant protein was purified as previously described[67] following a batch preparation on Ni-NTA beads (Qiagen, Paris, France).
Both oligonucleotides were purchased from Integrated DNA Technologies, Inc. (Coralville, IA), and the gel was purified in-house. ST reactions were performed by adding molecules or an equivalent volume of 100% dimethyl sulfoxide (DMSO, used as the drug solvent) to a mixture of 20 nM duplex DNA substrate and 400 nM IN in 50 mM MOPS pH 7.2, 7.5 mM MgCl2, and 14 mM 2-mercaptoethanol. Mixtures were incubated at 37 °C for 2 h, and the reaction was quenched by addition of an equal volume of loading buffer [formamide containing 1% sodium dodecyl sulfate (SDS), 0.25% bromophenol blue, and xylene cyanol]. […] Dried gels were visualized using a FLA5000 (Fuji Photo Film, Tokyo, Japan). Densitometric analyses were performed using ImageQuant 5.1 software from GE Healthcare.

[5] = anti-RH activity (IC50 ± SD), HIV-1 RT-associated RNase H activity, dose-response curves, no preincubation
[6] = Human immunodeficiency virus 1, 24 h
[7] = CC50 (cytotoxic concentration 50%), 24 h
[8] = Human immunodeficiency virus 1, HeLa-CD4-LTR-β-gal cells, 24 h post infection
[9] = HIV-1 RT-associated RNase H activity, dose-response curves, no preincubation

SMILES	IC50 [1, 5] [µM]	CC50 at 24 h [3, 7] [µM]	other results
CCOC(=O)c1cn(Cc2ccc(F)cc2)c2ccc(C(F)(F)F)cc2c1=O [5c, Ethyl 1-(4-Fluorobenzyl)-4-oxo-6-(trifluoromethyl)-1,4-dihydroquinoline-3-carboxylate]	59 ± 5		
O=C(O)c1cn(Cc2ccc(F)cc2)c2ccc(C(F)(F)F)cc2c1=O [4c, 1-(4-Fluorobenzyl)-4-oxo-6-(trifluoromethyl)-1,4-dihydroquinoline-3-carboxylic Acid]	> 100		
CCOC(=O)c1cn(Cc2ccc(F)cc2)c2ccc(Oc3ccccc3)cc2c1=O [5i, Ethyl 1-(4-Fluorobenzyl)-4-oxo-6-phenoxy-1,4-dihydroquinoline-3-carboxylate]	45.5 ± 1.5		
CCOC(=O)c1cn(Cc2ccc(F)cc2)c2ccc(OCc3ccc(-c4ccccc4)cc3)cc2c1=O [5s, Ethyl 6-([1,1′-Biphenyl]-4-ylmethoxy)-1-(4-fluorobenzyl)-4-oxo-1,4-dihydroquinoline-3-carboxylate]	> 100		
CCOC(=O)c1cn(Cc2ccc(F)cc2)c2ccc(OCc3ccc4c(c3)OCO4)cc2c1=O [5q, Ethyl 6-(Benzo[d][1,3]dioxol-5-ylmethoxy)-1-(4-fluorobenzyl)-4-oxo-1,4-dihydroquinoline-3-carboxylate]	55.3 ± 1.7		
CCOC(=O)c1cn(Cc2ccc(F)cc2)c2ccc(O)cc2c1=O [5g, Ethyl 1-(4-Fluorobenzyl)-6-hydroxy-4-oxo-1,4-dihydroquinoline-3-carboxylate]	> 100		
O=C(O)c1cn(Cc2ccc(F)cc2)c2ccccc2c1=O [4a, 1-(4-Fluorobenzyl)-4-oxo-1,4-dihydroquinoline-3-carboxylic Acid]	> 100		
CCOC(=O)c1cn(Cc2ccc(F)cc2)c2ccc(C#N)cc2c1=O [5b, Ethyl 6-Cyano-1-(4-fluorobenzyl)-4-oxo-1,4-dihydroquinoline-3-carboxylate]	> 100		
CN(C)CCCOc1ccc2c(c1)c(=O)c(C(=O)O)cn2Cc1ccc(F)cc1 [4j, 6-(3-(Dimethylamino)propoxy)-1-(4-fluorobenzyl)-4-oxo-1,4-dihydroquinoline-3-carboxylic Acid]	15.4 ± 3		
CCOC(=O)c1cn(Cc2ccc(F)cc2)c2ccc(OCc3cccc4ccccc34)cc2c1=O [5o, Ethyl 1-(4-Fluorobenzyl)-6-(naphthalen-1-ylmethoxy)-4-oxo-1,4-dihydroquinoline-3-carboxylate]	1.49 ± 0.33	> 100	EC50 [2, 6]: > 100 µM
N#Cc1ccc2c(c1)c(=O)c(C(=O)O)cn2Cc1ccc(F)cc1 [4b, 6-Cyano-1-(4-fluorobenzyl)-4-oxo-1,4-dihydroquinoline-3-carboxylic Acid]	> 100		
CCOC(=O)c1cn(Cc2ccc(F)cc2)c2ccc(OCc3ccc(OCc4ccccc4)cc3)cc2c1=O [5t, Ethyl 6-((4-(Benzyloxy)benzyl)oxy)-1-(4-fluorobenzyl)-4-oxo-1,4-dihydroquinoline-3-carboxylate]	> 100		
CC(=O)c1ccc2c(c1)c(=O)c(C(=O)O)cn2Cc1ccc(F)cc1 [4d, 6-Acetyl-1-(4-fluorobenzyl)-4-oxo-1,4-dihydroquinoline-3-carboxylic Acid]	16.3 ± 1.42	> 200	EC50 [2, 8]: > 50 µM; IC50 [4]: > 100 µM; CC50 at 24 h ([3]; supplement CSV, read-out: CC50): > 50 µM
O=C(O)c1cn(Cc2ccc(F)cc2)c2ccc([N+](=O)[O-])cc2c1=O [4e, 1-(4-Fluorobenzyl)-6-nitro-4-oxo-1,4-dihydroquinoline-3-carboxylic Acid]	56 ± 4		
CCOC(=O)c1cn(Cc2ccc(F)cc2)c2ccc(OCc3ccc4ccccc4c3)cc2c1=O [5p, Ethyl 1-(4-Fluorobenzyl)-6-(naphthalen-2-ylmethoxy)-4-oxo-1,4-dihydroquinoline-3-carboxylate]	19.6	73 ± 24	EC50 [2, 8]: > 50 µM; CC50 at 24 h ([3]; supplement CSV, read-out: CC50): > 50 µM
CCOC(=O)c1cn(Cc2ccc(F)cc2)c2ccc(OCCCN(C)C)cc2c1=O [5j, Ethyl 6-(3-(Dimethylamino)propoxy)-1-(4-fluorobenzyl)-4-oxo-1,4-dihydroquinoline-3-carboxylate]	> 100		

SMILES	IC50 [1, 5] [µM]	CC50 at 24 h [3, 7] [µM]	other results
CCOC(=O)c1cn(Cc2ccc(F)cc2)c2ccc(C(C)=O)cc2c1=O [5d, Ethyl 6-Acetyl-1-(4-fluorobenzyl)-4-oxo-1,4-dihydroquinoline-3-carboxylate]	11 ± 1	> 200	EC50 [2, 8]: > 50 µM; IC50 [4]: > 100 µM; CC50 at 24 h ([3]; supplement CSV, read-out: CC50): > 50 µM
CCOC(=O)c1cn(Cc2ccc(F)cc2)c2ccc([N+](=O)[O-])cc2c1=O [5e, Ethyl 1-(4-Fluorobenzyl)-6-nitro-4-oxo-1,4-dihydroquinoline-3-carboxylate]	47.8 ± 10		
CS(=O)(=O)c1ccc2c(c1)c(=O)c(C(=O)O)cn2Cc1ccc(F)cc1 [4f, 1-(4-Fluorobenzyl)-6-(methylsulfonyl)-4-oxo-1,4-dihydroquinoline-3-carboxylic Acid]	100		
CCOC(=O)c1cn(Cc2ccc(F)cc2)c2ccc(OCc3ccccc3)cc2c1=O [5l, Ethyl 6-(Benzyloxy)-1-(4-fluorobenzyl)-4-oxo-1,4-dihydroquinoline-3-carboxylate]	8 ± 1.6	> 100	EC50 [2, 8]: > 100 µM
CCOC(=O)c1cn(Cc2ccc(F)cc2)c2ccc(OCCCCc3ccccc3)cc2c1=O [5r, Ethyl 1-(4-Fluorobenzyl)-4-oxo-6-(4-phenylbutoxy)-1,4-dihydroquinoline-3-carboxylate]	28.4 ± 4.3	> 200	EC50 [2, 8]: > 16 µM; IC50 ([1]; RH IC50 (uM), supplement CSV): 28.4 ± 4.3 µM; CC50 at 24 h ([3]; supplement CSV, read-out: CC50): > 50 µM
CCOC(=O)c1cn(Cc2ccc(F)cc2)c2ccc(OC)cc2c1=O [5h, Ethyl 1-(4-Fluorobenzyl)-6-methoxy-4-oxo-1,4-dihydroquinoline-3-carboxylate]	> 100		anti-RH activity (IC50 ± SD) [1, 9]: no activity
CCOC(=O)/C=C/C(=O)/C=C/c1cccn1Cc1ccccc1Cl [compound 11, reference compound]	7.5 ± 1.32	68 ± 10	EC50 [2, 6]: 2.9 ± 0.5 µM; IC50 [4]: > 100 µM
COc1ccc2c(c1)c(=O)c(C(=O)O)cn2Cc1ccc(F)cc1 [4h, 1-(4-Fluorobenzyl)-6-methoxy-4-oxo-1,4-dihydroquinoline-3-carboxylic Acid]	> 100		anti-RH activity (IC50 ± SD) [1, 9]: no activity
CCOC(=O)c1cn(Cc2ccc(F)cc2)c2ccc(S(C)(=O)=O)cc2c1=O [5f, Ethyl 1-(4-Fluorobenzyl)-6-(methylsulfonyl)-4-oxo-1,4-dihydroquinoline-3-carboxylate]	> 100		
O=C(O)c1cn(Cc2ccc(F)cc2)c2ccc(OCc3ccc4ccccc4c3)cc2c1=O [4p, 1-(4-Fluorobenzyl)-6-(naphthalen-2-ylmethoxy)-4-oxo-1,4-dihydroquinoline-3-carboxylic Acid]	30.3 ± 1.7	> 200	EC50 [2, 8]: > 50 µM; IC50 ([1]; RH IC50 (uM), supplement CSV): 30.3 ± 1.69 µM; CC50 at 24 h ([3]; supplement CSV, read-out: CC50): > 50 µM
O=C(O)c1cn(Cc2ccc(F)cc2)c2ccc(Oc3ccccc3)cc2c1=O [4i, 1-(4-Fluorobenzyl)-4-oxo-6-phenoxy-1,4-dihydroquinoline-3-carboxylic Acid]	32 ± 11		
O=C(O)c1cn(Cc2ccc(F)cc2)c2ccc(OCCCCc3ccccc3)cc2c1=O [4r, 1-(4-Fluorobenzyl)-4-oxo-6-(4-phenylbutoxy)-1,4-dihydroquinoline-3-carboxylic Acid]	8.27 ± 0.45	> 200	EC50 [2, 8]: > 50 µM; CC50 at 24 h ([3]; supplement CSV, read-out: CC50): > 50 µM
CC(C)c1ccc(O)c(=O)c(O)c1 [BTP, β-thujaplicinol, reference compound]	0.19 ± 0.03		
CCOC(=O)c1cn(Cc2ccc(F)cc2)c2ccc(/C=C/C(=O)c3ccccc3)cc2c1=O [5k, (E)-Ethyl 1-(4-Fluorobenzyl)-4-oxo-6-(3-oxo-3-phenylprop-1-en-1-yl)-1,4-dihydroquinoline-3-carboxylate]	15.3 ± 1.6	> 100	EC50 [2, 8]: > 50 µM
O=C(O)c1cn(Cc2ccc(F)cc2)c2ccc(O)cc2c1=O [4g, 1-(4-Fluorobenzyl)-6-hydroxy-4-oxo-1,4-dihydroquinoline-3-carboxylic Acid]	74 ± 9		
